This is an account of results in PMC12114195, “Synthesis, Experimental and Computational Evaluation of SERAAK1 as a 5-HT2A Receptor Ligand” (Molecules, 2025).

Structures are written as SMILES.

For one data set, the target named is CYP2D6 (Homo sapiens, UniProt P10635). Put plainly: CYP2D6 P450 Glo luminescent assay. The settings on record: for inhibition at 10 µM: human. On the procedure:
(§1) Luminescence-based CYP3A4 P450 Glo and CYP2D6 P450 Glo kits (Promega, Madison, WI, USA) were used to assess the impact of SERAAK1 on the activity of two distinct cytochrome P450 isoforms. These assays were performed according to the protocol of the manufacturer and in alignment with the previously described methods. Each assay was performed twice in triplicate. Luminescence signals were measured using a Spark microplate reader (Tecan, Männedorf, Zürich, Switzerland).

A further data set concerns the target T1, CYP3A4 (Homo sapiens, UniProt P08684).
T1 construct: purchased Promega
Put plainly: CYP3A4 P450 Glo luminescent assay. Type of data set: in vitro ADME. The procedure: Briefly, the effect of SERAAK1 on CYP3A was determined using a luminescent luciferase-based assay. A 10 µM concentration of the compound was tested in two experiments, each with three replicates.
as §1

A further data set has as its system HepG2 cells. Put plainly: MTS cytotoxicity assay, HepG2. Type of data set: cell-based, human. The conditions noted are these: 72 h. On the procedure: (§2) The cytotoxic properties of SERAAK1 were tested in two human cell lines, selected based on their relevance to the study objectives—the HepG2 and SH-SY5Y. Figure 7 and Figure 8 depict the results obtained in the cytotoxicity assays performed using the MTS.
(§3) The cytotoxic effect of SERAAK1 was evaluated using the colorimetric MTS assay. The study was conducted on HepG2 and SH-SY5Y cell lines, following the same protocol. Cell lines were obtained from the American Type Culture Collection (Manassas, VA, USA) and maintained under standard conditions (5% CO2, 37 °C) in DMEM/F12 medium (#31330-038, ThermoFisher Scientific, Waltham, MA, USA), supplemented with 10% FBS (#A5256801, ThermoFisher Scientific) and Penicillin-Streptomycin (#15140-122, ThermoFisher Scientific) until used in the experiment. Cells at passage numbers between 15 and 25 were seeded in 96-well plates at the concentration of 5000 cells/well in 200 μL of medium and incubated for 24 h at 37 °C with 5% CO2. […] Subsequently, plates were incubated at 37 °C, and absorbance was measured using a Spark microplate reader after 1 h for HepG2 and 3 h for SH-SY5Y. Final cell viability was calculated relative to control wells (100% viability) and wells with 10 μM doxorubicin (0% viability). […]
Background: Formazan colour is commonly taken as a measure of viable cells.

The test system of a further data set is SH-SY5Y cells. Put plainly: MTS cytotoxicity assay, SH-SY5Y. Type of data set: cell-based, human. The settings on record: 72 h. The procedure:
as §2, §3

Data set [1] can be described thus: PAMPA passive permeability. Type of data set: in vitro ADME. The conditions noted are these: for Papp at 5 h, 100 μM: PBS pH 7.4, 5 h, read-out: Pe ± SD. On the procedure:
The PAMPA assay was utilized to evaluate the ability of SERAAK1 to passively diffuse through a lipid-infused artificial membrane. The results, gathered in Table 3, were expressed as permeability coefficient Pe, calculated according to the formulas described elsewhere.
The pre-coated PAMPA Plate System Gentest from Corning (Tewksbury, MA, USA) was used in experiments using the instructions of the manufacturer. SERAAK1 and reference compounds were diluted in the PBS buffer (pH 7.4) to the final concentration of 100 μM and placed on the 96-well donor microplate. The exact quantity of molecules that successfully penetrated from donor to acceptor wells through the phospholipid membrane was estimated after 5 h of incubation using UPLC-MS spectrometry (Waters ACQUITY™ TQD system with the TQ Detector, Waters, Milford, CT, USA). The final permeability coefficient (Pe, cm/s) calculation was performed using the formula provided by the vendor of the PAMPA Plate System.
(In general: PAMPA measures passive passage across an artificial lipid membrane.)

Data set [2] concerns mice. As to the kind of experiment: Spontaneous locomotor activity. Type of data set: in vivo. The conditions noted are these: 30 and 60 mg/kg i.p., 60 min before the test, one-way ANOVA. On the procedure:
Spontaneous locomotor activity is a meaningful parameter helping to understand the physical and mental status of laboratory animals, providing insights into general activity levels, arousal and potential sedative or stimulant effects of administered substances. We measured the distance traveled by the mice during the 20 min observation period.
(§4) The investigated compound (SERAAK1) in all tests was administered intraperitoneally (i.p.), spread in a drop of Tween 80, diluted by an aqueous solution of 0.5% methylcellulose (tylose) and injected 60 min before the tests in a volume of 10 mL/kg. Initial doses of the compound were selected based on available literature and our earlier studies. Control groups received tylose injections of the same volume and via the same route of administration.
(§5) All experiments were conducted on a 6-week-old naïve male Swiss mice weighing 24–30 g in the Experimental Medicine Center, Medical University of Lublin, Poland. […]
(§6) The automatic device—actimeter Opto-Varimex-4 Auto-Track (Columbus Instruments, Columbus, OH, USA)—was used to measure the locomotor activity of experimental animals. The mice were individually placed in cages for 25 min: the first 5 min for acclimatization and then the next 20 min for observation while the distance (in centimeters) traveled during this time was measured. […]

Data set [3] has as its system mice. As to the kind of experiment: Chimney test (motor coordination). Type of data set: in vivo. The conditions noted are these: 30 mg/kg and 60 mg/kg i.p., 60 min after administration. On the procedure: (§7) This conclusion was supported by results from two widely used behavioral tests: the chimney test (Figure 10) and the rotarod test (Figure 11), conducted 60 min after the substance administration. In the chimney test, we measured the time it took the mice to exit the chimney, and in the second test, the time the animals stayed on the rod rotating at a constant speed of 18 rpm.
as §4
(§8) All experiments were conducted on a 6-week-old naïve male Swiss mice weighing 24–30 g in the Experimental Medicine Center, Medical University of Lublin, Poland. The animals were housed (four/five per cage) under standard laboratory conditions (room temperature of 22 ± 1 °C and a relative humidity of 50–60% during a 12/12 h light-dark cycle, lights on at 8:00). […]
(§9) The effects of SERAAK1 were also measured in the rotarod and chimney tests. In the first test, the ability of mice to balance on a rotating rod (18 rpm, constantly) was assessed for 1 min. […]

Data set [4] concerns mice. Put plainly: Rotarod test (motor coordination). Type of data set: in vivo. The settings on record: 30 mg/kg and 60 mg/kg i.p., 60 min after administration. The procedure: as §7, §4, §8, §9
In general terms: In the rotarod test animals must keep their balance on a rotating rod.

Data set [5] concerns mice. Put plainly: Elevated plus maze test (EPM). Type of data set: in vivo. The conditions noted are these: 30 mg/kg i.p. The procedure:
The effect of SERAAK1 on anxiety-like behavior in mice was assessed using the elevated plus maze test (EPM). In this test we measured three parameters: time spent in the open arms of the maze, the number of entries into the open arms—expressed as a percentage of the time spent/entries in both types of maze arms and the total number of entries into the open and closed arms of the maze, which is an additional measure of the animals’ locomotor activity. The anxiolytic activity of mice after SERAAK1 administration was expressed as the percentage of time spent in the open arms of the maze and the number of entries into these arms. Statistical analysis with a t-test indicated a significant influence of acute administration of SERAAK1 (30 mg/kg) on anxiety responses.
as §4
All experiments were conducted on a 6-week-old naïve male Swiss mice weighing 24–30 g in the Experimental Medicine Center, Medical University of Lublin, Poland. The animals were housed (four/five per cage) under standard laboratory conditions (room temperature of 22 ± 1 °C and a relative humidity of 50–60% during a 12/12 h light-dark cycle, lights on at 8:00). The animals had free access to laboratory food—pellet diet (LSM, Agropol Motycz, Marynin, Poland) and tap water—except for the short time when they were removed from the cages for testing. […]
Anxiety behaviors were measured using the EPM test according to the Lister method. […] The time spent in the EPM open arms, the number of entries into the open arms, and the total number of entries into both types of arms were measured.

Data set [6] has as its system mice. As to the kind of experiment: Forced swim test (FST). Type of data set: in vivo. The conditions noted are these: 30 mg/kg i.p., 60 min before the test, vs control, p < 0.01. On the procedure:
The forced swim test (FST) is commonly used in rodent laboratory models to assess the efficacy of a potential antidepressant drug in alleviating or preventing depressive-like states. In the FST, we estimated the immobility time of animals, illustrating it […]. In this study, a t-test was used to assess the statistically significant effect of acute administration of SERAAK1 (30 mg/kg) on mice behavior in the FST.
as §4, §5
The study was carried out using the test proposed by R. Porsolt. […] The immobility time, considered as the state in which the mouse performs only those movements necessary to keep its head above the water, is measured between 2 and 6 min.

Data set [7] relates to mice. Put plainly: Amphetamine-induced hyperactivity. Type of data set: in vivo. On the procedure: In this test, we measured the distance traveled by the mice during the 20 min observation period. […] Pretreatment concerns the administration of amphetamine, and treatment concerns the tested compound.
as §4, §8, §6

In data set [8] the target is 5-HT2A receptor. Further details: method as in PMID 38619283. The conditions noted are these: radioligand binding; cited from earlier work.
For the next data set, the target named is 5-HT1A receptor. More on the design: method as in PMID 38619283. The settings on record: radioligand binding; cited from earlier work.
A further data set has as its target D2 receptor. Further details: method as in PMID 38619283. The settings on record: radioligand binding; cited from earlier work.
Data set [9] concerns the target 5-HT2A receptor. Further details: method as in PMID 38619283. The conditions noted are these: functional studies; read-out: Kb, antagonist of the 5-HT2A receptor; cited from earlier work.
Where [10] appears, read: 30 µM (highest concentration tested).
The mark [11] stands for this setting: 60 min before the test, vs control, p < 0.001.

Sequence of CYP2D6 (P10635 whole entry, canonical isoform): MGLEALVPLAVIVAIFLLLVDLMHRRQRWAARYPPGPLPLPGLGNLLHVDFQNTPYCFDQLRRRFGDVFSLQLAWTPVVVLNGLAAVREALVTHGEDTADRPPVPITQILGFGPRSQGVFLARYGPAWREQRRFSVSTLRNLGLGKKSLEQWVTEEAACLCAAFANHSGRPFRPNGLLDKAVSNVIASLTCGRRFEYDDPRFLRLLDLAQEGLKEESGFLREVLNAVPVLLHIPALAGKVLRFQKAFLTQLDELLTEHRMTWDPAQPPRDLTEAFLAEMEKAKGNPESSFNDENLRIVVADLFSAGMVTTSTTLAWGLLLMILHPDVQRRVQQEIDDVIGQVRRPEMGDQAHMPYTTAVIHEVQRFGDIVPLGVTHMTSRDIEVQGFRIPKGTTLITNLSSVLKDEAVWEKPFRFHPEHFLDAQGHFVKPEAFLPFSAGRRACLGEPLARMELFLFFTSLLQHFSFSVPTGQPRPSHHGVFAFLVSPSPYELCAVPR
T1 sequence (P08684 whole entry): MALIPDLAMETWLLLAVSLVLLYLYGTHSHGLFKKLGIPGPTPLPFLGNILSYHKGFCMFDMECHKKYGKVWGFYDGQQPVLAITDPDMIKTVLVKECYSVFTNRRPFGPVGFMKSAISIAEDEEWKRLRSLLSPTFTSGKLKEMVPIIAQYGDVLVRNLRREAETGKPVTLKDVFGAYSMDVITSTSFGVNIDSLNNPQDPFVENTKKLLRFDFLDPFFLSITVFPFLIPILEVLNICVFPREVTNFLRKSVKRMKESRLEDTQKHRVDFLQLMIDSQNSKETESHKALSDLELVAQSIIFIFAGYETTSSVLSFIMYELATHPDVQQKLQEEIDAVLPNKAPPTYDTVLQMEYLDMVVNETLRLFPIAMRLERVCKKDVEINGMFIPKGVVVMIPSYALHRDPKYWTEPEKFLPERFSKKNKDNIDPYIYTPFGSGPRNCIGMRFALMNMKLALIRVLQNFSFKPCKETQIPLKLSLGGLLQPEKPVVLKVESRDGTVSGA

Regarding `C=C[C@H]1C[N@@]2CC[C@H]1C[C@@H]2[C@@H](O)c1ccnc2ccc(OC)cc12` [Quinidine, reference compound], the inhibition at 10 µM on CYP2D6 (CYP2D6 P450 Glo kit (Promega)) was 100 ± 1%.

Regarding `OC(COC(c1ccccc1)c1ccccc1)CN1CCN(C(c2ccccc2)c2ccccc2)CC1` (stereo not shown) [SERAAK1, 1-(benzhydryloxy)-3-(4-benzhydrylpiperazin-1-yl)propan-2-ol], the “CYP3A4 induction, dose-response” value at CYP3A4 (concentrations > 100 nM, up to 10 µM) is given as “induce CYP3A4 in a dose-dependent manner”. In addition, the inhibition at 10 µM at CYP3A4 (human, CYP3A4 P450 Glo kit (Promega), 10 µM, a negative value indicates a stimulating effect, read-out: CYP3A4 Activity Inhibition, Evaluated in the Concentration of 10 µM [% of Inhibition ± SEM]) was -352 ± 9%; on CYP2D6, 95 ± 1%. Also, the “CYP2D6 inhibition concentration range (IC50)” value at CYP2D6 is given as “submicromolar”. Besides, the “Toxic influence on HepG2 cells at lower concentrations” value in the data set with HepG2 cells (0.3 µM, 3 µM) is listed as “no toxic influence”. In addition, the “% inhibition of cell proliferation (cytotoxic effect), HepG2” value in the data set on HepG2 cells (setting [10]) is 84 ± 3%. Moreover, the “Toxic influence on SH-SY5Y cells at lower concentrations” value in the data set with SH-SY5Y cells (0.3 µM, 3 µM) is “no toxic influence”. Also, in the data set on SH-SY5Y cells (setting [10]), the “% inhibition of cell proliferation, SH-SY5Y” value was 50 ± 5%. Besides, the “Passive permeation through the lipid bilayer” value in data set [1] is recorded as “did not permeate passively”. In addition, in data set [1], the Papp at 5 h, 100 μM is less than 0.01 ×10⁻⁶ cm/s. Further, the “Spontaneous locomotor activity (distance traveled in 20 min)” value in the data set on mice [2] is given as “did not show any significant changes”. Besides, the “Motor coordination, chimney test (time to exit the chimney)” value in the data set on mice [3] is recorded as “did not reveal any statistically significant effects”. For the same compound, the “Motor coordination, rotarod test (time on the rod, 18 rpm)” value in the data set on mice [4] is on record as “did not reveal any statistically significant effects”. In addition, in the data set on mice [5], the “Total arm entries, overall mobility (EPM)” value is reported as “did not change the overall mobility”. Further, in the data set on mice [5] (setting [11]), the “Increase in percentage of open arm entries (EPM)” value came out at 19.34%. In the data set with mice [5] (setting [11]), the “Increase in percentage of time spent on the open arms (EPM)” value is given as 12.9%. Besides, the “Reduction in immobility time (FST)” value with mice [6] is recorded as 29.2%. Also, the “Decrease of amphetamine-induced hyperactivity (distance traveled in 20 min)” value in the data set on mice [7] (30 mg/kg with amphetamine (5 mg/kg), vs amphetamine-treated group, p < 0.05) turned out to be 22.15%. Moreover, the Ki was 826 ± 51 nM at 5-HT2A receptor [8], 1420 ± 108 nM on 5-HT1A receptor and 1290 ± 323 nM at D2 receptor. The antagonist dissociation constant (Kb) at 5-HT2A receptor [9] is 462 nM.

Consider `CCN1CCCC1CNC(=O)c1cc(S(N)(=O)=O)ccc1OC` (stereo not shown) [Sulpiride, reference compound], for which the Papp at 5 h, 100 μM in data set [1] turned out to be 0.011 ± 0.002 ×10⁻⁶ cm/s.

In the case of `CC(N)Cc1ccccc1` (stereo not shown) [amphetamine, reference compound], the “Locomotor activity (distance traveled) vs saline-treated group” value in the data set with mice [7] (amphetamine alone, p < 0.001) is reported as “increased the locomotor activity”.

In general, Ki refers to the dissociation constant of the complex between target and ligand, obtained from inhibition or displacement. As usually defined, the Kb is the affinity of an antagonist, worked out from how it opposes an agonist.
